Where a name gives a salt, the structure may show the parent alone.
Assays:
CA II = CA II hit fragments, SPR; cited from earlier work
hCA VI = target: T1, hCA VI (Homo sapiens, UniProt P23280); experiment: Stopped flow CO2 hydrase assay; format: biochemical; conditions: mean from three assays, errors ±10%
T1 construct: made in house
Description: (§1) CA enzyme inhibition data was determined by measuring the CA-catalysed hydration of CO2 in the presence of 11–13. In addition to the ubiquitous hCA II, all other catalytically active hCA enzymes (I, IV, VA, VB, VI, VII, IX, XII, XIII and XIV) were assessed, providing a comprehensive profile of CA enzyme inhibition, Table 2. […]. Different CAs have different expression profiles and cell locations. […] A comparison between hCA VII and hCA II has identified 7 residue differences (S65A, Q67N, D69E, K91I, A135V, S136Q, S204L) among the 23 residues within the active site cavity. […] Here, we propose that this further extends to the minimal differences in observed active site compound binding strength between these isozymes. […]. Furthermore, they are considered a validated target for antiobesity drug development, in which they have been proposed to have an involvement in insulin secretion, however this mechanism is not yet fully understood. […]. The appreciable inhibition of the glitazones for the different CA isozymes highlights the potential for CA-mediated off-target effects of these drugs when used clinically, and given the reported polypharmacology observed for these compounds, this may provide an avenue for further understanding of their mechanism of action.
(§2) An Applied Photophysics stopped-flow instrument was used for assaying the inhibition of the CA catalysed CO2 hydration reaction. Phenol red (0.2 mM) was used as indicator, monitored at the absorbance maximum of 557 nm. Reactions were carried out in a HEPES (10 mM, pH 7.4) buffer and NaClO4 (10 mM), for maintaining the ionic strength constant, the ClO4^- anion is not inhibitory against most CA isoforms at 25 °C [62]. […]. Inhibitors were tested in the concentration range of 0.01 nM–100 μM, and at least six traces of the initial 5–10% of the reaction have been used for determining the initial velocity. The uncatalyzed rates were determined in the same manner and subtracted from the total observed rates. Stock solutions of inhibitor (1 mM) were prepared in distilled, deionized water with 10–20% (v/v) DMSO (which is not inhibitory at these concentrations), and dilutions were performed thereafter with the assay buffer. Inhibitor and enzyme solutions were preincubated together for 15 min at room temperature prior to assay to allow for the formation of the enzyme inhibitor complex. The inhibition constants were obtained by nonlinear least squares methods using PRISM 3 (GraphPad Software Inc, San Diego, CA, USA). […]. The catalytic activity (in the absence of inhibitors) of the different enzymes was calculated from Lineweaver–Burk plots and represent the mean from at least three different determinations. Enzyme concentrations in the assay system were in the range of 3.8–9.5 nM. Enzymes used here were recombinant ones, prepared and purified as described earlier.

hCA VA = target: T2, hCA VA (Homo sapiens, UniProt P35218); experiment: Stopped flow CO2 hydrase assay; format: biochemical; conditions: mean from three assays, errors ±10%
T2 construct: made in house
T2 sequence (P35218 39-305): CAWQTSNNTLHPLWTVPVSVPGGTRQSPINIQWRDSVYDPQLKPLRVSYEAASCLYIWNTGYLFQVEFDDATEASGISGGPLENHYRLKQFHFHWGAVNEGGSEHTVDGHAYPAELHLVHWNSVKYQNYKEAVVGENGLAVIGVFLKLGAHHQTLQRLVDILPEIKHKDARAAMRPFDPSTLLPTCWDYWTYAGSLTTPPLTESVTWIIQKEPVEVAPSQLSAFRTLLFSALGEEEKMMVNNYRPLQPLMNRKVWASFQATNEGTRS
Description: as §1, §2

hCA XIII = target: T3, hCA XIII (Homo sapiens, UniProt Q8N1Q1); experiment: Stopped flow CO2 hydrase assay; format: biochemical; conditions: mean from three assays, errors ±10%
T3 construct: made in house
T3 sequence (Q8N1Q1 whole entry): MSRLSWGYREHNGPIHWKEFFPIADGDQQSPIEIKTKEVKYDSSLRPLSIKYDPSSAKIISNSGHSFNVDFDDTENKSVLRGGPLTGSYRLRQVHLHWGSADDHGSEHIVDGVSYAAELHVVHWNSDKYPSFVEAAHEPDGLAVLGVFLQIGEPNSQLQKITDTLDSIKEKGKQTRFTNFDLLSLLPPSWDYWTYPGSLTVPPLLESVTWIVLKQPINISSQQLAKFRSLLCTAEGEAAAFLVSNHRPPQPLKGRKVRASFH
Description: as §1, §2

hCA VB = target: T4, hCA VB (Homo sapiens, UniProt Q9Y2D0); experiment: Stopped flow CO2 hydrase assay; format: biochemical; conditions: mean from three assays, errors ±10%
T4 construct: made in house
T4 sequence (Q9Y2D0 34-317): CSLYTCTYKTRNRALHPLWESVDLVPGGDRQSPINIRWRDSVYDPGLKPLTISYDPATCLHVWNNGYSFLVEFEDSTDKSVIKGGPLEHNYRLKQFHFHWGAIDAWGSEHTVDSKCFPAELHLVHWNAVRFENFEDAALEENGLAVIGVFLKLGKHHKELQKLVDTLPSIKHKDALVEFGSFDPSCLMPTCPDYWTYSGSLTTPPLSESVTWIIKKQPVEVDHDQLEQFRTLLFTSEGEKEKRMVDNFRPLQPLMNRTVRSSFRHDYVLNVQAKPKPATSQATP
Description: as §1, §2

hCA XIV = target: T5, hCA XIV (Homo sapiens, UniProt Q9ULX7); experiment: Stopped flow CO2 hydrase assay; format: biochemical; conditions: mean from three assays, errors ±10%
T5 construct: made in house
T5 sequence (Q9ULX7 16-337): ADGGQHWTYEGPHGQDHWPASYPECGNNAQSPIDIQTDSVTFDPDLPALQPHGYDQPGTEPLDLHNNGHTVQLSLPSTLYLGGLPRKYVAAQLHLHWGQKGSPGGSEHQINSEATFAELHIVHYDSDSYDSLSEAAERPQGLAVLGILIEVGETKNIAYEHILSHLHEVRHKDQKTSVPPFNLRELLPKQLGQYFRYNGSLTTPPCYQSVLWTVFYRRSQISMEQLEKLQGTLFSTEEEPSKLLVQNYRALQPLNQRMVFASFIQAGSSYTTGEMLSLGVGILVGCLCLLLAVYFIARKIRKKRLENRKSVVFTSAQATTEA
Description: as §1, §2

hCA IV = target: T6, hCA IV (Homo sapiens, UniProt P22748); experiment: Stopped flow CO2 hydrase assay; format: biochemical; conditions: mean from three assays, errors ±10%
T6 construct: made in house
T6 sequence (P22748 19-312): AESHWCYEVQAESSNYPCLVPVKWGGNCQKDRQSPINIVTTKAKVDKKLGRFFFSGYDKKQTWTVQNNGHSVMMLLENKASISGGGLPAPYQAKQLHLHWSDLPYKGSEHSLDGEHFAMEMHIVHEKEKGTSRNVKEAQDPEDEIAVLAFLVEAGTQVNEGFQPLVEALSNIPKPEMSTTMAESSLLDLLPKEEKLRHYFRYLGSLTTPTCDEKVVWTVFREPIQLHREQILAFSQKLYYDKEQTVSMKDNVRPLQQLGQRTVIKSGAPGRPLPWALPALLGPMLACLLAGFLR
Description: (§3) In addition to the ubiquitous hCA II, all other catalytically active hCA enzymes (I, IV, VA, VB, VI, VII, IX, XII, XIII and XIV) were assessed, providing a comprehensive profile of CA enzyme inhibition, Table 2. […] Different CAs have different expression profiles and cell locations. […] A comparison between hCA VII and hCA II has identified 7 residue differences (S65A, Q67N, D69E, K91I, A135V, S136Q, S204L) among the 23 residues within the active site cavity.
(§4) An Applied Photophysics stopped-flow instrument was used for assaying the inhibition of the CA catalysed CO2 hydration reaction. […] The uncatalyzed rates were determined in the same manner and subtracted from the total observed rates. […] Inhibitor and enzyme solutions were preincubated together for 15 min at room temperature prior to assay to allow for the formation of the enzyme inhibitor complex. The inhibition constants were obtained by nonlinear least squares methods using PRISM 3 (GraphPad Software Inc, San Diego, CA, USA). […] The catalytic activity (in the absence of inhibitors) of the different enzymes was calculated from Lineweaver–Burk plots and represent the mean from at least three different determinations. […] Enzymes used here were recombinant ones, prepared and purified as described earlier.

hCA II = target: T7, hCA II (Homo sapiens, UniProt P00918); experiment: Stopped flow CO2 hydrase assay; format: biochemical; conditions: mean from three assays, errors ±10%
T7 construct: made in house
Description: as §3, §4

hCA IX = target: T8, hCA IX (Homo sapiens, UniProt Q16790); experiment: Stopped flow CO2 hydrase assay; format: biochemical; conditions: mean from three assays, errors ±10%
T8 construct: made in house
Description: as §3, §4

hCA XII = target: T9, hCA XII (Homo sapiens, UniProt O43570); experiment: Stopped flow CO2 hydrase assay; format: biochemical; conditions: mean from three assays, errors ±10%
T9 construct: made in house
T9 sequence (O43570 25-354): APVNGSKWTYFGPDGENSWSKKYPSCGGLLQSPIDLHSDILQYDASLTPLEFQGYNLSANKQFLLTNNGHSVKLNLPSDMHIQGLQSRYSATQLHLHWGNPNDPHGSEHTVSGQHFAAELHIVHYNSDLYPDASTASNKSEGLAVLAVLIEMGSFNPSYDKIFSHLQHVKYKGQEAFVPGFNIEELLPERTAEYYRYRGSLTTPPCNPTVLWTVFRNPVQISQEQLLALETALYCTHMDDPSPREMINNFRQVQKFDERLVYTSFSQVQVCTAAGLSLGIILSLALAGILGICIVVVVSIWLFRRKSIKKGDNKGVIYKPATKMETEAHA
Description: as §3, §4

hCA I = target: T10, hCA I (Homo sapiens, UniProt P00915); experiment: Stopped flow CO2 hydrase assay; format: biochemical; conditions: mean from three assays, errors ±10%
T10 construct: made in house
T10 sequence (P00915 whole entry): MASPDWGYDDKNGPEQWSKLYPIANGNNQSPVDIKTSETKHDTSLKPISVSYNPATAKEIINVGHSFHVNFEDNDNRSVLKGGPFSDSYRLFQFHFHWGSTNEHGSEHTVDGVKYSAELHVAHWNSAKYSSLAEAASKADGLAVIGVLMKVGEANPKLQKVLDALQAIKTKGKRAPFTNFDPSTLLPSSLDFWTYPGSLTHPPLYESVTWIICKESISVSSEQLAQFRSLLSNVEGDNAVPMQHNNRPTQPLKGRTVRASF
Description: as §3, §4

hCA VII = target: T11, hCA VII (Homo sapiens, UniProt P43166); experiment: Stopped flow CO2 hydrase assay; format: biochemical; conditions: mean from three assays, errors ±10%
T11 construct: made in house
T11 sequence (P43166 whole entry): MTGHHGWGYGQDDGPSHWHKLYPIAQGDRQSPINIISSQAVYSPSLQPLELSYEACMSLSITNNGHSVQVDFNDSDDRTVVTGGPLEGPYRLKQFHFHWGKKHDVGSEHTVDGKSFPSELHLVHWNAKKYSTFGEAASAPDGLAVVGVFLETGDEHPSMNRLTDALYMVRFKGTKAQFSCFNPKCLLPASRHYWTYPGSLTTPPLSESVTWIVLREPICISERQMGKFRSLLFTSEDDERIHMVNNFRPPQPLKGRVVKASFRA
Description: as §3, §4

T1 sequence (P23280 18-308): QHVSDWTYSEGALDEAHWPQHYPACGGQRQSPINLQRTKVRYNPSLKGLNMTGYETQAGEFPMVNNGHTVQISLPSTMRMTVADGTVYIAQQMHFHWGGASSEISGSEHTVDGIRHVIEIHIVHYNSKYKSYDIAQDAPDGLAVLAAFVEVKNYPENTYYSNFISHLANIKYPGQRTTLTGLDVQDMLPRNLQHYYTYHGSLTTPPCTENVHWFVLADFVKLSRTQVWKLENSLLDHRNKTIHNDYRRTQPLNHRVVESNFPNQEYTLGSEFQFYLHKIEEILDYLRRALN

In the case of O=C(CSc1nnc[nH]1)c1ccccc1 [Compound 7], the Kd (CA II) is given as 194 µM.
For Clc1ccc(OCc2nn[nH]n2)cc1 [Compound 6], the Kd (CA II) is given as 709 µM.
For O=C(O)c1cccc(Oc2ccccc2)c1 [Compound 2], the Kd (CA II) is listed as 1280 µM.
In the case of O=C(O)Cc1cccc(OCc2ccccc2)c1 [Compound 3], the Kd (CA II) is listed as 1080 µM.
For Clc1ccccc1OCc1nn[nH]n1 [Compound 5], the Kd (CA II) is given as 631 µM.
For Cc1ccnc(S(N)(=O)=O)n1 [Compound 4], the Kd (CA II) is listed as 1.4 µM.
Compound Cc1c(C)c2c(c(C)c1O)CCC(C)(COc1ccc(CC3SC(=O)NC3=O)cc1)O2 (racemic) [Compound 11, (±)-5-[4-[(6-Hydroxy-2,5,7,8-tetramethylchroman-2-yl)methoxy]benzyl]-2,4-thiazolidinedione] has a Ki (hCA VI) of 46.7 µM, a Ki (hCA VA) of 12.4 µM and a Ki (hCA XIII) of 32.3 µM. It also gave a Ki (hCA VB) of 28.9 µM, a Ki (hCA XIV) of 16.8 µM and a Ki (hCA IV) greater than 100 µM. It also gave a Ki (hCA II) of 1.3 µM, a Ki (hCA IX) of 1.3 µM and a Ki (hCA XII) of 0.92 µM. For the same compound, the Ki (hCA I) was 57.2 µM.
For C/C(=C\C(=O)O)c1ccc(Cl)cc1 [Compound 1], the Kd (CA II) is given as 905 µM.
Compound CN(CCOc1ccc(CC2SC(=O)NC2=O)cc1)c1ccccn1 (centres unmarked) [Compound 12, 5-[[4-[2-(methyl-2-pyridinylamino)ethoxy]phenyl]methyl]-2,4-thiazolidinedione] has a Ki (hCA VI) of 5.9 µM, a Ki (hCA VA) of 8.2 µM and a Ki (hCA XIII) of 7.4 µM. It also gave a Ki (hCA VB) of 40.9 µM, a Ki (hCA XIV) of 2.3 µM and a Ki (hCA VII) of 6.1 µM. The Ki (hCA IV) was 58.9 µM, the Ki (hCA II) was 0.75 µM and the Ki (hCA IX) was 2.5 µM. It also gave a Ki (hCA XII) of 3.7 µM and a Ki (hCA I) of 16.3 µM.
For CCc1ccc(CCOc2ccc(CC3SC(=O)NC3=O)cc2)nc1 (centres unmarked) [Compound 13, 5-[[4-[2-(5-ethyl-2-pyridinyl)ethoxy]phenyl]methyl]-2,4-thiazolidinedione monohydrochloride], the Ki (hCA VI) was 19.8 µM, the Ki (hCA VA) was 5.3 µM and the Ki (hCA XIII) was 21.5 µM. It also gave a Ki (hCA VB) of 36.2 µM, a Ki (hCA XIV) of 6.6 µM and a Ki (hCA VII) of 4.9 µM. The Ki (hCA IV) was 92.1 µM, the Ki (hCA II) was 7.1 µM and the Ki (hCA IX) was 0.75 µM. The Ki (hCA I) was 39.6 µM.

From publication PMC8158703, “The Glitazone Class of Drugs as Carbonic Anhydrase Inhibitors—A Spin-Off Discovery from Fragment Screening” (Molecules, 2021)
